# Several values for one entry are separate records, joined by “and”; a condition that tells them apart may be missing. Identical values can stand only once.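 Five compound concentrations were applied to cells in 96-well plates for 48 hours; endpoints were derived by simple linear interpolation of the resulting dose-response curve. GI50 = concentration required for 50% inhibition of growth. At the TGI there is no net growth.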
# Tests used:
# Assay in all cases: growth of human tumour cells (NCI), 48 h
# LOX IMVI melanoma = test system: LOX IMVI melanoma
# TK-10 renal = test system: TK-10 renal
# NCI/ADR-RES ovarian = test system: NCI/ADR-RES ovarian
# DU-145 prostate = test system: DU-145 prostate
# SN12C renal = test system: SN12C renal
# SF-539 CNS = test system: SF-539 CNS
# IGROV1 ovarian = test system: IGROV1 ovarian
# UACC-257 melanoma = test system: UACC-257 melanoma
# MALME-3M melanoma = test system: MALME-3M melanoma
# HOP-92 NSCLC = test system: HOP-92 NSCLC
# OVCAR-5 ovarian = test system: OVCAR-5 ovarian
# SF-268 CNS = test system: SF-268 CNS
# K-562 leukemia = test system: K-562 leukemia
# COLO 205 colon = test system: COLO 205 colon
# SK-OV-3 ovarian = test system: SK-OV-3 ovarian
# MCF7 breast = test system: MCF7 breast
# SNB-19 CNS = test system: SNB-19 CNS
# HCT-15 colon = test system: HCT-15 colon
# KM12 colon = test system: KM12 colon
# T-47D breast = test system: T-47D breast
# UO-31 renal = test system: UO-31 renal
# BT-549 breast = test system: BT-549 breast
# OVCAR-4 ovarian = test system: OVCAR-4 ovarian
# HCT-116 colon = test system: HCT-116 colon
# A549 NSCLC = test system: A549 NSCLC
# MDA-MB-231 breast = test system: MDA-MB-231 breast
# MOLT-4 leukemia = test system: MOLT-4 leukemia
# SR leukemia = test system: SR leukemia
# U251 CNS = test system: U251 CNS
# MDA-MB-435 = test system: MDA-MB-435
# 786-0 renal = test system: 786-0 renal
# NCI-H460 lung = test system: NCI-H460 lung
# SNB-75 CNS = test system: SNB-75 CNS
# HOP-62 NSCLC = test system: HOP-62 NSCLC
# SW-620 colon = test system: SW-620 colon
# OVCAR-3 ovarian = test system: OVCAR-3 ovarian
# M14 melanoma = test system: M14 melanoma
# RPMI-8226 leukemia = test system: RPMI-8226 leukemia
# SK-MEL-2 melanoma = test system: SK-MEL-2 melanoma
# ACHN renal = test system: ACHN renal
# HS 578T breast = test system: HS 578T breast
# HT29 colon = test system: HT29 colon
# SF-295 CNS = test system: SF-295 CNS
# NCI-H23 lung = test system: NCI-H23 lung
# SK-MEL-5 melanoma = test system: SK-MEL-5 melanoma
# CCRF-CEM leukemia = test system: CCRF-CEM leukemia
# UACC-62 melanoma = test system: UACC-62 melanoma
# HCC-2998 colon = test system: HCC-2998 colon
# SK-MEL-28 melanoma = test system: SK-MEL-28 melanoma
# RXF 393 renal = test system: RXF 393 renal
# PC-3 prostate = test system: PC-3 prostate
# HL-60(TB) leukemia = test system: HL-60(TB) leukemia
# MDA-N = test system: MDA-N
# CAKI-1 renal = test system: CAKI-1 renal
# EKVX NSCLC = test system: EKVX NSCLC
# NCI-H522 lung = test system: NCI-H522 lung
# NCI-H226 lung = test system: NCI-H226 lung
# OVCAR-8 ovarian = test system: OVCAR-8 ovarian
smiles,measurement,setting,value
COC1OC(COC(=O)NCCCCC(=O)C(F)(F)C(F)(F)C(F)(F)C(F)(F)C(F)(F)C(F)(F)C(F)(F)F)C(O)C(O)C1O (configuration not stated),TGI,LOX IMVI melanoma,30.2 µM and 27.9 µM
same,TGI,TK-10 renal,30 µM and 32 µM
same,TGI,NCI/ADR-RES ovarian,61.8 µM and > 100 µM
same,GI50,DU-145 prostate,34.8 µM and 4.86 µM
same,TGI,DU-145 prostate,> 100 µM and 29.9 µM
same,TGI,SN12C renal,40.2 µM and 43.5 µM
same,TGI,SF-539 CNS,29.5 µM and 34.2 µM
same,TGI,IGROV1 ovarian,30.9 µM and 27.4 µM
same,TGI,UACC-257 melanoma,36.2 µM and 37.7 µM
same,TGI,MALME-3M melanoma,44.3 µM and 47.3 µM
same,GI50,HOP-92 NSCLC,14.2 µM and 2.27 µM
same,TGI,HOP-92 NSCLC,28.6 µM and 15.6 µM
same,TGI,OVCAR-5 ovarian,32.9 µM and 32.3 µM
same,TGI,SF-268 CNS,30.8 µM and 37.1 µM
same,TGI,K-562 leukemia,36.8 µM and 37.5 µM
same,TGI,COLO 205 colon,45 µM and 39.7 µM
same,TGI,SK-OV-3 ovarian,29.2 µM and 27.2 µM
same,TGI,MCF7 breast,33.6 µM and 33.4 µM
same,TGI,SNB-19 CNS,34 µM and 34.1 µM
same,TGI,HCT-15 colon,33.1 µM and 38.3 µM
same,TGI,KM12 colon,37.1 µM and 48.7 µM
same,TGI,T-47D breast,39.1 µM and 32.5 µM
same,TGI,UO-31 renal,30.5 µM and 30.8 µM
same,TGI,BT-549 breast,31.4 µM and 31.9 µM
same,TGI,OVCAR-4 ovarian,35.3 µM and 28.5 µM
same,TGI,HCT-116 colon,39.4 µM and 31.9 µM
same,TGI,A549 NSCLC,36.1 µM and 31 µM
same,TGI,MDA-MB-231 breast,42.3 µM and 40.2 µM
same,GI50,MOLT-4 leukemia,12.5 µM and 4.13 µM
same,TGI,MOLT-4 leukemia,31.7 µM and 23.1 µM
same,TGI,SR leukemia,> 100 µM
same,TGI,U251 CNS,39.7 µM and 24.6 µM
same,TGI,MDA-MB-435,32.2 µM and 31.7 µM
same,TGI,786-0 renal,31.4 µM and 30.1 µM
same,TGI,NCI-H460 lung,36.3 µM and 49.5 µM
same,TGI,SNB-75 CNS,29.3 µM and 27.6 µM
same,TGI,HOP-62 NSCLC,32.1 µM and 30.1 µM
same,TGI,SW-620 colon,31.9 µM and 31.7 µM
same,TGI,OVCAR-3 ovarian,29.2 µM and 28.1 µM
same,TGI,M14 melanoma,29.7 µM and 29.4 µM
same,TGI,RPMI-8226 leukemia,> 100 µM
same,TGI,SK-MEL-2 melanoma,40.1 µM and 40.3 µM
same,TGI,ACHN renal,31.8 µM and 29.9 µM
same,TGI,HS 578T breast,43.8 µM and 33.7 µM
same,TGI,HT29 colon,27.4 µM and 35 µM
same,TGI,SF-295 CNS,44.8 µM and 44.2 µM
same,TGI,NCI-H23 lung,40.4 µM and 34.1 µM
same,TGI,SK-MEL-5 melanoma,25.8 µM and 24.3 µM
same,GI50,CCRF-CEM leukemia,16.4 µM and 7.62 µM
same,TGI,CCRF-CEM leukemia,44 µM and 37.4 µM
same,TGI,UACC-62 melanoma,26.6 µM and 27.5 µM
same,TGI,HCC-2998 colon,36.5 µM and 37.5 µM
same,TGI,SK-MEL-28 melanoma,31 µM and 30.5 µM
same,TGI,RXF 393 renal,26.4 µM and 30.2 µM
same,TGI,PC-3 prostate,25.9 µM and 26.5 µM
same,GI50,HL-60(TB) leukemia,24.9 µM
same,TGI,HL-60(TB) leukemia,> 100 µM
same,TGI,MDA-N,51.9 µM and 61.3 µM
same,TGI,CAKI-1 renal,32.9 µM and 30 µM
N#Cc1nc(/C=C/c2nc(C#N)c(N)o2)oc1N,TGI,LOX IMVI melanoma,> 10 µM
same,TGI,TK-10 renal,> 10 µM
same,TGI,EKVX NSCLC,> 10 µM
same,TGI,NCI/ADR-RES ovarian,> 10 µM
same,TGI,DU-145 prostate,> 10 µM
same,TGI,SN12C renal,> 10 µM
same,TGI,SF-539 CNS,> 10 µM
same,TGI,IGROV1 ovarian,> 10 µM
same,TGI,UACC-257 melanoma,> 10 µM
same,TGI,MALME-3M melanoma,> 10 µM
same,TGI,HOP-92 NSCLC,> 10 µM
same,TGI,SF-268 CNS,> 10 µM
same,TGI,K-562 leukemia,> 10 µM
same,TGI,COLO 205 colon,> 10 µM
same,TGI,SK-OV-3 ovarian,> 10 µM
same,TGI,MCF7 breast,> 10 µM
same,TGI,SNB-19 CNS,> 10 µM
same,TGI,HCT-15 colon,> 10 µM
same,TGI,KM12 colon,> 10 µM
same,TGI,T-47D breast,> 10 µM
same,TGI,UO-31 renal,> 10 µM
same,TGI,BT-549 breast,> 10 µM
same,TGI,OVCAR-4 ovarian,> 10 µM
same,TGI,HCT-116 colon,> 10 µM
same,TGI,A549 NSCLC,> 10 µM
same,TGI,NCI-H522 lung,> 10 µM
same,TGI,MDA-MB-231 breast,> 10 µM
same,TGI,SR leukemia,> 10 µM
same,TGI,MDA-MB-435,> 10 µM
same,TGI,786-0 renal,> 10 µM
same,TGI,NCI-H460 lung,> 10 µM
same,TGI,SNB-75 CNS,> 10 µM
same,TGI,HOP-62 NSCLC,> 10 µM
same,TGI,SW-620 colon,> 10 µM
same,TGI,M14 melanoma,> 10 µM
same,TGI,RPMI-8226 leukemia,> 10 µM
same,TGI,NCI-H226 lung,> 10 µM
same,TGI,ACHN renal,> 10 µM
same,TGI,HS 578T breast,> 10 µM
same,TGI,HT29 colon,> 10 µM
same,TGI,SF-295 CNS,> 10 µM
same,TGI,NCI-H23 lung,> 10 µM
same,TGI,SK-MEL-5 melanoma,> 10 µM
same,TGI,CCRF-CEM leukemia,> 10 µM
same,TGI,OVCAR-8 ovarian,> 10 µM
same,TGI,UACC-62 melanoma,> 10 µM
same,TGI,HCC-2998 colon,> 10 µM
same,TGI,SK-MEL-28 melanoma,> 10 µM
same,TGI,RXF 393 renal,> 10 µM
same,TGI,PC-3 prostate,> 10 µM
same,TGI,HL-60(TB) leukemia,> 10 µM
same,TGI,MDA-N,> 10 µM
same,TGI,CAKI-1 renal,> 10 µM
